Data reported in patent publication US9617311B2, “Use of PEDF-derived polypeptides for promoting stem cells proliferation and wound healing” (Mackay Memorial Hospital, priority 2011, dated 2017).

B1: full-length PEDF: Native human pigment epithelium-derived factor purified from human plasma via collagen I-sepharose resin (protein, listed as Homo sapiens)
chain: MQALVLLLCIGALLGHSSCQNPASPPEEGSPDPDSTGALVEEEDPFFKVPVNKLAAAVSNFGYDLYRVRSSTSPTTNVLLSPLSVATALSALSLGAEQRTESIIHRALYYDLISSPDIHGTYKELLDTVTAPQKNLKSASRIVFEKKLRIKSSFVAPLEKSYGTRPRVLTGNPRLDLQEINNWVQAQMKGKLARSTKEIPDEISILLLGVAHFKGQWVTKFDSRKTSLEDFYLDEERTVRVPMMSDPKAVLRYGLDSDLSCKIAQLPLTGSMSIIFFLPLKVTQNLTLIEESLTSEFIHDIDRELKTVQAVLTVPKLKLSYEGEVTKSLQEMKLQSLFDSPDFSKITGKPIKLTQVEHRAGFEWNEDGAGTTPSPGLQPAHLTFPLDYHLNQPFIFVLRDTDTGALLFIGKILDPRGP

How the values were obtained:
[1] = test system: limbal epithelial stem cells (LSCs); assay: In vitro LSC proliferation, BrdU pulse-labeling with ΔNp63α immunostaining; format: cell-based, New Zealand white rabbits; settings: BrdU 2 hours; for percentage of BrdU and ΔNp63α-double positive cells per total ΔNp63α-positive cells: 25 nM peptide or 4.5 nM PEDF in medium, control medium 3.0±0.5%, mean±SEM
Text: LSCs were isolated from six-month-old New Zealand white rabbits and used for cell-suspension culture in accordance with the method previously described by Cheng et al. (The growth-promoting effect of KGF on limbal epithelial cells is mediated by upregulation of DeltaNp63alpha through the p38 pathway. J Cell Sci 2009; 122 (Pt 24): 4473-4480) and Wang et al. (Importin 13 serves as a potential marker for corneal epithelial progenitor cells. Stem Cells 2009; 27: 2516-2526) with a slight modification. Rabbit limbal tissues were washed in PBS containing 100 U/ml penicillin and 50 μg/ml gentamicin. After carefully removing the iris, and excessive sclera, the limbal rings were exposed to dispase II (1.2 IU/ml in Hanks' balanced salt solution free of Mg^2+ and Ca^2+) at 4° C. for 16 hours. The loosened epithelial sheets were removed with a cell scraper and separated into single cells by enzymatic digestion (0.05% trypsin, and 0.01% EDTA) for 15 min at 37° C. with gentle shaking and transferred to a stop medium (9 ml of HEPES-buffered DMEM containing 10% FBS). Cells were then collected by centrifugation (400×g for 5 min).
About 1×10^5 cells were seeded on each wells of a 6-well plate and incubated in a DMEM/Ham's F-12 basal medium (10 mM HEPES, 5 ng/ml human EGF, 1% SITE liquid medium, antibiotic-antimicotic solutions, 0.5% DMSO and 0.5 μg/ml hydrocortisone) supplemented with 10% FBS for 2 days, and then shifted to a basal medium or basal medium containing 4.5 nM PEDF, 25 nM 39-mer, 25 nM 34-mer, 25 nM 29-mer, 25 nM 25-mer, 25 nM 20-mer, 25 nM 18-mer, 25 nM Mo 29-mer or 25-nM Mo 20-mer. The cells were continued cultivated at 37° C. under 5% CO2 for another 3 days until they reached confluence (passage 0). LSCs were co-cultured with MMC-treated NIH-3T3 fibroblast feeder cells located within trans-well (0.4 μm pore, BD Biosciences, Bedford, Mass.). For passage purpose, near-confluent cells were harvested again by enzymatic treatment (i.e., 0.25% trypsin), and then 1×10^5 subcultured cells were further cultured in the respective medium, and proliferative capacity of cells was compared every 4 days after continuously culture-subculture (passage).
De-paraffinized tissue sections or 4% paraformaldehyde-fixed LSCs were blocked with 10% goat serum and 5% BSA in PBST (PBS containing 0.1% Tween-20) for 1 hour. Staining was done using primary antibodies against ΔNp63α (1:150 dilution), BrdU (1:250 dilution), and keratin-3 (1:250 dilution) at 37° C. for 2 hours, followed by incubation with the appropriate rhodamine- or FITC-conjugated donkey IgG (1:500 dilution) for 1 hour at RT. Nuclei were identified by counterstaining with Hoechst 33258 for 7 minutes. Images were captured using a Zeiss epifluorescence microscope with a CCD camera and photographs were taken by using the Axiovert software.
2×10^5 limbal cells (the 1st passage) were seeded at a slide coated with FNC COATING MIX® solution (Athena Enzyme Systems, Baltimore, Md.) and incubated with a culture medium for one day. BrdU (final, 10 μM) was added to the culture for 2 hours. After being fixed with 4% paraformaldehyde, cells were exposed to cold methanol for 2 minutes, and then treated with 1 N HCl at RT for 1 hour before performing immunofluorescence. For animal study, BrdU was reconstituted in DMSO as stock (80 mM). 10 μl of BrdU mixed with 90 μl of PBS was intraperitoneally injected into mouse 3 hours prior to euthanasia. DNA synthesis was assessed by BrdU labeling with anti-BrdU antibodies.

corneal wound = assay: Corneal wound healing in mice, fluorescein staining; format: in vivo, C57BL/6 mice; settings: for corneal re-epithelialization after 48 hours: 20 μl eye ointment with 50 μM peptide once a day, 2 mm wound; for residual epithelial defect, percentage of the original wound: 50 μM peptide eye ointment once a day
Method: The experiments were performed using eight-week-old female C57BL/6 mice, and the procedures were approved by the Mackay Memorial Hospital Review Board for animal investigation. Animals were anesthetized by an intraperitoneal injection of a mixture of zoletil (6 mg/kg) and xylazine (3 mg/kg). One filter paper (0.9 mm diameter) soaked with 20% ethanol was placed on the central cornea of right eye for one minute and then irrigated extensively with PBS. Subsequently, mechanical epithelial scrape was performed using a punch under a dissection microscope to create a circular injury (2 mm diameter) at the entire corneal region of the mouse eye without encroaching the corneal stroma, limbus or conjunctiva.
Each synthetic peptide (the 39-mer, 34-mer, 29-mer, 25-mer, 20-mer, 18-mer, Mo 29-mer or Mo 20-mer) was reconstituted in DMSO as stock (5 mM) and mixed with TOBREX® eye ointment (Alcon; containing 0.3% Tobramycin and 0.5% Chlorobutanol) to a concentration 50 μM. In each of the treatment group (n=6-10), the right eye was treated with 20 μl eye ointment containing the synthetic peptide once a day after the scrape injury. In the control group (n=20), right eye was treated with 20 μl of eye ointment mixed with vehicle DMSO. Wound size was determined by staining with topical fluorescein (Fluor-I-Strip, Ayerst Laboratories, Philadelphia, Pa.) and photographed with a digital camera. The area of defect was quantified from the photographs using a computer-assisted image analyzer (Adobe Photoshop CS3 10.0) and was calculated as the percentage of residual epithelial defect at each time point/initial wound area.
To investigate the effect of PEDF-derived short peptides on corneal wound healing in mice, corneal wound was created by a circular punch (2 mm diameter), then control eye-ointment or eye-ointment containing the short synthetic PEDF peptide(s) of this invention was applied to the wounded eye, and wound healing was subsequently evaluated by fluorescein staining. No significant differences in the size of the initial abrasion were noted between synthetic PEDF peptide-treated and control mice.

[2] = test system: full-thickness skin excisional wounds; assay: Skin wound healing in mice, wound area from photographs; format: in vivo, C57L/B6 mice; settings: for residual epithelial defects, percentage of the original wound: 25 μl skin ointment with 50 μM peptide once daily
Method: FIG. 6A provides photographs and FIG. 6B is a histogram, and together, they illustrate the skin (epithelial) wound-healing of mice from treatment groups according to another example of the present disclosure. 4 mm punch wounds were made on the dorsal side of C57/B6 mice. Skin ointment was treated once a day. Photographs of the wounded skin and ruler (scale 10 mm) were captured with a CCD camera (Olympus). The residual epithelial defect (%) is presented as percentage of the original wound. Data are shown as mean±SE.
To perform full-thickness skin excision, 8- to 10-week-old C57L/B6 mice were respectively anesthetized by an intraperitoneal injection of a mixture of zoletil (6 mg/kg) and xylazine (3 mg/kg). Two full-thickness skin excisional wounds, 4 mm in diameter were made on either side of the dorsal midline using Sklar Tru-Punch disposable biopsy punch (Sklar, West Chester, Pa., USA). In each treatment group (n=6), the skin wound was treated with 25 μl skin ointment (containing 50 μM synthetic peptide and 0.006 μl DMSO vehicle) once daily after the skin scraping. In the control group (n=6), skin wound was treated with 25 μl of skin ointment with equal concentration of DMSO. Each gram of the above skin ointment contains 5 mg neomycin sulfate and 12.5 mg Bacitracin Zinc. Wounds were left uncovered and harvested 4 and 7 days after injury. Mice were housed individually during the healing period.
The area of wound was quantified from the photographs using a computer-assisted image analyzer (Adobe Photoshop CS3 10.0) and was calculated as the percentage of residual epithelial defect at each time point/initial wound area.

[3] = test system: hair follicle stem cells (HFSCs); assay: In vitro HFSC proliferation, BrdU pulse-labeling with Lgr6 immunostaining; format: cell-based, Human; settings: 50 nM peptide or 4.5 nM PEDF in medium; BrdU 2 hours; control 31.9±5.6%
Method: FIG. 5A provides immunofluorescence microscopy photographs and FIG. 5B is a histogram, and together, they illustrate the in vitro proliferation of HFSCs from treatment groups according to one example of the present disclosure. HFSC proliferation was determined by BrdU labeling for 2 hours. HFSCs (Lgr6, green) and BrdU (red) were detected by immunofluorescence microscopy (original magnification, ×1000). Twenty randomly selected fields in each group were photographed, and the percentage of BrdU and Lgr6-double positive cells (pale pink) per total Lgr6-positive cells was calculated. *P<0.001 versus untreated cells.
Human hair follicles were collected from hairs of healthy donors. The follicles were dissected with tweezers under microscope and most of adipose and connective tissue was removed. The bulge region of hair follicle under the sebaceous gland was cut and then bulge fragments (including central isthmus) were transferred into a 35-mm dish containing 1 ml of collagenase A (1 mg/ml; Roche) and incubated for 1.5 hours at 37° C. to digest the collagen capsule. Subsequently, the bulge fragments were transferred into a fresh cell culture dish containing dispase II (2.4 U/ml)/0.05% trypsin and further incubated for 1.5 hours at 37° C. to obtain a single cell suspension.
After mechanical dissection and enzymatic digestion, the suspended bulge cells isolated from five bulge fragments were seeded into a well of 12-well culture plate and incubated with the basal medium for 5 days to facilitate cell adhesion. The basal medium contains four parts Gibco calcium-free Dulbecco's modified Eagle's medium (DMEM) and one part Ham's F12 medium (calcium concentration reached about 0.25 mM) and supplemented with 10% FBS, 10 ng/ml human epidermal growth factor, 500 mg/I L-glutamine, 0.2% bovine pituitary extract, […] hydrocortisone, 1% ITSE as well as antibiotic-antimicotic solutions. Cultivation method was similar to that of Blazejewska et al. (Stem Cells 2009; 27:642). After 5 days of incubation, cells were cultured in the serum-free basal medium or basal medium containing 4.5 nM PEDF, 50 nM 29-mer, or 50 nM 20-mer, until near confluence (about 2 weeks; passage 0). The medium was changed every 2 to 3 days. The bulge cells were co-cultured with 3T3 fibroblast feeder cells. For passage, near-confluent cells were harvested by enzymatic treatment (i.e., 0.25% trypsin) for 5 min at 37° C. Approximately 1×10^5 human bulge cells were transferred to a new dish and allowed to grow for 14 days to near confluence (passage 1). […]

[4] = day 4 post-injury, control 61.5±3.2%
[5] = day 7 post-injury, control 44.5±5.3%

Molecule | percentage of BrdU and ΔNp63α-double positive cells per total ΔNp63α-positive cells [1] | corneal re-epithelialization after 48 hours (corneal wound) | residual epithelial defect, percentage of the original wound (corneal wound; 24 hours, control 84.9±5.1%) | residual epithelial defect, percentage of the original wound (corneal wound; 48 hours, control 39.5±3.1%) | residual epithelial defects, percentage of the original wound [2, 4] | residual epithelial defects, percentage of the original wound [2, 5] | enhanced LSC proliferation versus control medium ([1]; 25 nM peptide in medium) | promotion of skin wound healing ([2]; days 4 and 7, 50 μM peptide skin ointment once daily) | percentage of BrdU and Lgr6-double positive cells per total Lgr6-positive cells [3]
ALSALSLGAEQRTESIIHRALYYDLISSPDIHGT [34-mer, short synthetic PEDF peptide derived from the 39-mer] | 30.0±3.4% | complete corneal re-epithelialization | 40.6±7.2% | 4.6±2.1% | 41.4±2.5% | 17.9±6.1% | – | – | –
EQRTESIIHRALYYDLISSPDIHGT [25-mer] | – | incompletely healed wounds | – | – | – | – | enhanced proliferation was not observed | not able to promote wound healing | –
LSVATALSALSLGAEQRTESIIHRALYYDLISSPDIHGT [39-mer, synthetic peptide, residues 83-121 of human PEDF] | 30.1±1.9% | complete corneal re-epithelialization | 37.2±4.3% | 4.8±2.7% | 48.1±3.2% | 18.4±5.7% | – | – | –
B1 | 22.0±1.5% | – | – | – | – | – | – | – | 73.8±6.0%
